Values joined by “and” are separate entries in the source; they are usually repeats but may differ in a detail not shown here. Identical values can stand only once.
Columns and labels:
[1] = oral capsules
[2] = tested on: subjects with idiopathic PD with LIDs
Method: At the time the study was performed (2009), there was no FDA accepted instrument for measuring treatment efficacy for LIDs. Therefore, several secondary objectives were utilized to assess efficacy including the Unified Dyskinesia Rating Scale (UDysRS).
Efficacy was measured with the Unified Dyskinesia Rating Scale (UDysRS), a semi-quantitative assessment, FDA-validated instrument to assess […] dyskinesia in PD. […] Dosing was begun at 1 mg every 6 hours to a final dose of 24 mg per day. Patients who tolerated a total daily dose of at least 16 mg per day continued in the study.
LIDs were assessed by the UDysRS, the main measure of LIDs (Table 12). […] The study was conducted in accordance with the Declaration of Helsinki and Good Clinical Practice Guidelines. All sites received approval from an institutional review board and written informed consent was obtained from each patient prior to participation.
(§1) The efficacy variables for LIDs were the mean change from baseline to week 10 in the UDysRS total score; UDysRS sub-scores (Table 12). An analysis of covariance (ANCOVA) combined features of regression and analysis of variance (ANOVA). In addition to the descriptive summary of each variable from baseline to endpoint, Least Square (LS) means standard errors and 95% Confidence intervals (CI) of each group, and the difference of LS means between the 2 treatment groups and its 95% CI are presented. A similar analysis was applied to comparisons between UPDRS Part II, UPDRS Part III.

[3] = tested on: subjects with idiopathic PD with LIDs; remark: listed apart in the source
Text: (§2) The original UPDRS scale was used. […] In the UPDRS Part II, Question 13 is on Falling unrelated to Freezing. […] In Part II, Question 14 is on Freezing when Walking. This is a 5-point item and has two variables freezing and falls. […] Questions 13 and 14 were compared separately (Table 11).
as §1

[4] = tested on: subjects with idiopathic PD with LIDs; remark: listed apart in the source
Text: This post hoc analysis was inclusive of patients having baseline scores of […] for each of UPDRS Part II Question 13, Part II Question 14, and Part III Item 30.
as §2
For falls (UPDRS Part II, Question 13), a 5-point scale was used: 0: No falls to 4: falls more than once per day. For FOG and falls related to FOG (Question 14), a 5-point scale was used: 0: No FOG to 3 or 4: frequent falls from FOG. […] Analysis utilized Fisher's exact 2-tailed test. Improvement or worsening over baseline was calculated from the last treatment visit (Table 11).
This post hoc analysis was inclusive of patients having screening and/or baseline scores of greater than 0 for each of UPDRS Part II Question 13, Part II Question 14, and Part III Item 30.
Question 13—Falling Unrelated to Freezing • 0=None; • 1=Rare falling; • 2=Occasionally falls, less than once per day; • 3=Falls an average of once daily; • 4=Falls more than once daily.
For the purposes of this alternative post hoc analysis, only patients having a screening or baseline score of 2 or more, i.e., occasional freezing when walking or occasional falls, less than once per day, were considered to have experienced episodes of freezing and/or falling. Additionally, scores of patients with a screening or baseline score of 1 were set to 0, i.e., no freezing when walking or no falls. All patients were included in the analysis regardless of their status during the study, with the last observation carried forward.

[5] = baseline to week 10, of 30 patients

Compound: CN1CCCC1c1cccnc1.O=C(O)C(O)C(O)C(=O)O (centres unmarked) [NP002, Nicotine Bitartrate]
- time until plasma concentration of nicotine returns close to baseline [1]: approximately 6 hours
- UDysRS Evaluation of Dyskinesias on Ambulation, Difference LS Means ([2]; NP002 vs placebo, p 0.011): −3.7 +/− 1.9
- UDysRS Evaluation of Dyskinesias on 7 Body Parts, Difference LS Means ([2]; NP002 vs placebo, p 0.062): −2.8 +/− 2.6
- Total Score UDysRS, Difference LS Means ([2]; NP002 vs placebo, p 0.092): −6.7 +/− 4.1
- UDysRS Evaluation of Dyskinesias on Dressing, Difference LS Means ([2]; NP002 vs placebo, p 0.139): −2.1 +/− 1.4
- UDysRS Evaluation of Dyskinesias on Drinking, Difference LS Means ([2]; NP002 vs placebo, p 0.171): −2.4 +/− 1.7
- UDysRS Evaluation of Dyskinesias on Communication, Difference LS Means ([2]; NP002 vs placebo, p 0.189): −1.9 +/− 1.4
- UDysRS total score (primary outcome of dyskinesia) vs placebo ([2]; Week 10): statistical trend towards improvement
- reduction (improvement) in UDysRS ambulation subtest ([2]; baseline to week 10, p=0.011 vs placebo): 46% and 46.3%
- reduction in LIDs on the Total UDysRS ([2]; baseline to week 10, p=0.09 vs placebo): 29%
- Total Score UDysRS, Baseline ([2]; before treatment, n=35): 51.7 +/− 16.9
- UDysRS Evaluation of Dyskinesias on 7 Body Parts, Baseline ([2]; before treatment, n=35): 13.5 +/− 5.4
- UDysRS Evaluation of Dyskinesias on Ambulation, Baseline ([2]; before treatment, n=35): 9.5 +/− 6.0
- UDysRS Evaluation of Dyskinesias on Communication, Baseline ([2]; before treatment, n=35): 10.5 +/− 4.8
- UDysRS Evaluation of Dyskinesias on Dressing, Baseline ([2]; before treatment, n=35): 11.3 +/− 6.2
- UDysRS Evaluation of Dyskinesias on Drinking, Baseline ([2]; before treatment, n=35): 9.1 +/− 5.6
- physician reported outcomes per UDysRS Part III vs placebo ([2]; dyskinesia impact on ambulation, p=0.011): significant improvement
- Total Score UDysRS, Week 10 ([2]; n=27): 36.4 +/− 16.1
- UDysRS Evaluation of Dyskinesias on Ambulation, Week 10 ([2]; n=27): 5.1 +/− 5.3
- UDysRS Evaluation of Dyskinesias on Communication, Week 10 ([2]; n=27): 7.0 +/− 5.0
- UDysRS Evaluation of Dyskinesias on Dressing, Week 10 ([2]; n=27): 6.9 +/−5.5
- UDysRS Evaluation of Dyskinesias on Drinking, Week 10 ([2]; n=27): 5.3 +/− 5.0
- Difference in LS Means, UPDRS Part III ([3]; NP002 versus placebo, p 0.337): −18.3 ± 1.8
- Difference in LS Means, UPDRS Part II ([3]; NP002 versus placebo, p 0.631): 10.1 ± 0.96
- UPDRS II Change ([3]; baseline to 10 weeks): 2.8 ± 5.2
- UPDRS III Change ([3]; baseline to 10 weeks): 2.0 ± 7.5
- UPDRS II at Baseline ([3]; before treatment, n=35): 13.1 ± 6.0
- UPDRS III at Baseline ([3]; before treatment, n=35): 20.0 ± 8.8
- UPDRS II at 10 Weeks ([3]; n=30): 10.1 ± 5.3
- UPDRS III at 10 Weeks ([3]; n=30): 17.3 ± 10.6
- UPDRS Part II and Part III after treatment vs placebo ([3]; p>0.34): no significant differences
- falling vs placebo at week 10 ([4]; Question 13 score of 2 or greater at screening or baseline, Wilcoxon-Mann-Whitney p=0.3250): directional signal towards reduced falling
- patients with either a reduction or absence of falls ([4]; active phase of the study): ~87%
- Falls (Question 13): patients with No Change [4, 5]: 15
- Falls (Question 13): patients with change +1 [4, 5]: 1
- Falls (Question 13): patients with change +2 [4, 5]: 0
- Falls (Question 13): patients with change +3 [4, 5]: 0
- Falls (Question 13): patients with change −1 [4, 5]: 7
- Falls (Question 13): patients with change −2 [4, 5]: 5
- Falls (Question 13): patients with change −3 ([4]; baseline to week 10, of 30 patients, negative = improvement): 2
- patients with no falls during the study ([4]; number of 30 patients): 12
- patients with a reduction in falls ([4]; of 30 patients, p=0.004 vs placebo): 47%
- improvement in falling vs placebo at week 10 ([4]; score >0 at screening/baseline, Fisher's exact test p=0.057): statistically significant improvement in falling
- patients who reported fewer falls (UPDRS Part II, Question 13) ([4]; screening and/or baseline score >0, follow-up to visit 3 or 4): 14 of 15

Source: patent publication US20190307740A1, “COMPOSITIONS AND METHODS FOR TREATMENT RELATED TO FALL AND FALL FREQUENCY IN NEURODEGENERATIVE DISEASES” (Neurocea, LLC, priority 2016, published 2019)
